According to patent publication US20210179680A1, “POLYPEPTIDE, DERIVATIVES THEREOF, AND APPLICATION THEREOF IN PREPARATION OF DRUGS HAVING RESISTANCE TO PULMONARY FIBROSIS” (priority 2016, published 2021):
Bridge positions count the residues as written; N and C are the ends. Square brackets hold non-standard residues; d marks the D form. Peptide text beside a SMILES is read from it. S5 = C=CCCC[C@](C)(N)C(=O)O

Assays:
[1] = tested on: mice with bleomycin-induced pulmonary fibrosis; assay: Hydroxyproline content in lung of mice with pulmonary fibrosis; format: in vivo, C57BL/6 mice; settings: Table 3 groups, 2 mg/kg i.p.; left lung lobes; chloramine-T method
Protocol: (§1) Male C57BL/6 mice were fasted overnight, then anesthetized with 45 mg/kg sodium pentobarbital by injection intraperitoneally (i.p.), and intratracheally injected with bleomycin at a dose of 3 U/kg. The specific operation steps are as follows: cut the neck skin of the mouse with as little trauma as possible, expose the trachea with the assistance of elbow ophthalmic forceps, puncture the trachea and inject about 50 μL of bleomycin into the trachea with a microsyringe, rotate the mouse quickly and stand it upright for 5 minutes in order to make bleomycin evenly enter the left and right lobe, thereby constructing an animal model. The whole operation was performed at a surgical table at about […]. Mice in the sham operation group were intratracheally injected with an equal amount of physiological saline for injection.
(§2) Hydroxyproline accounts for 13.4% (w/w) of collagen, and extremely small amount of elastin, while it is absent in other proteins. […] Pulmonary fibrosis models were prepared according to the method described in Example 2 and administered in groups according to Table 3. The content of hydroxyproline in the lobes of left lung of the animals was measured 28 days later, and the condition of pulmonary fibrosis was evaluated.
The specific method is as follows: the mice in the animal model prepared in Example 2 was feed in a SPF animal room and treated with polypeptide according to the dosing schedule of Table 3, and all left lobes of lung of the experimental animal was taken on the 21st day after the animal model was constructed and the wet weight was recorded. Then 10% (w/w) tissue homogenate was prepared by ultrasonic homogenization using physiological saline. About 150 μL of homogenate supernatant was taken, and 500 μL of alkali hydrolysate was added (provided by Hydroxyproline alkaline hydrolysis kit of Nanjing Jiancheng Bioengineering Technology Co., Ltd.). After vortex mixing, the mixture was treated with alkaline hydrolysis for 40 min under conditions of 120° C., 0.1 Kpa. After adjusting the pH value, the volume was held constant, and the supernatant was taken after performing activated carbon treatment. The hydroxyproline was determined according to the chloramine-T method (the method of the present example refers to the instruction provided with kit, which was purchased from Nanjing Jiancheng Bioengineering Technology Co., Ltd.). […] In FIG. 10, “##” represents that P value is less than 0.01 when comparing the content of hydroxyproline in the administration group with that in the sham operation group; and “*” represents that P value is less than 0.05 and“**” represents that P value is less than 0.01 when comparing the content of hydroxyproline in the administration group with that in bleomycin group.
as §2, with “collagen, and accounts for extremely small” for “collagen, and extremely small”, “in the all lobes of” for “in the lobes of”
The specific method is as follows: the mice in the animal model prepared in Example 2 was feed in an SPF animal room and treated with polypeptide according to the dosing schedule of Table 3, and all the left lobes of lung of the experimental animal was taken on the 21st day after the animal model was constructed and the wet weight was recorded. Then 10% (w/w) tissue homogenate was prepared by ultrasonic homogenization using physiological saline. About 150 μL of homogenate supernatant was taken, and 500 μL of alkali hydrolysate was added (provided by Hydroxyproline alkaline hydrolysis kit of Nanjing Jiancheng Bioengineering Technology Co., Ltd.). After vortex mixing, the mixture was treated with alkaline hydrolysis for 40 min under conditions of 120° C., 0.1 Kpa. […]

[2] = α-helix ratio of polypeptides by circular dichroism; format: physicochemical; settings: PBS solution, 1 mg/mL
Protocol: The α-helix ratio of the polypeptide was measured by a circular dichromatograph (purchased from Jasco, Japan). The polypeptides MR2, S1, S2, S3, S4, S5, S6, S7, S8, S9, S10 and S11 prepared in Example 1 were dissolved in PBS solution, and the working concentration of the circular dichromatograph was adjusted to 1 mg/mL. […] Among them, the α-helix ratio refers to the percentage of the number of peptide segments of the polypeptide that maintains the alpha helix of the secondary structure in the peptide segments of the total polypeptide.

[3] = tested on: mice with bleomycin-induced pulmonary fibrosis; assay: Survival rate of mice with bleomycin-induced pulmonary fibrosis; format: in vivo, C57BL/6 mice; settings: Table 3 groups: 2 mg/kg i.p., 10th to 28th day after modeling, twice a week
Protocol: as §1
The animal model with pulmonary fibrosis was prepared according to the method described in Example 2. The peptide therapy was started from the 10th day after modeling (the treatment groups are shown in Table 3), and the time was calculated from the 10th day after modeling to count the mortality rate. The death situation of each group of experimental animals was counted and calculated daily. […] The survival rate is the percentage of the number of mice that survived accounting for the number of mice in the whole group. Results are shown in FIG. 6-1, FIG. 6-2 and Table 4. […] In FIG. 6-1 and FIG. 6-2, “##” represents that P value is less than 0.01 when the survival rate of administration group was compared with that of the sham operation group; “*” represents that P value is less than 0.05 when the survival rate of administration group was compared with that of the bleomycin group; “**” represents that P value is less than 0.01 when the survival rate of administration group was compared with that of bleomycin group; and “i.p.” refers to intraperitoneal injection.
The animal model of pulmonary fibrosis was prepared according to the method described in Example 2. The polypeptide treatment was started from the 10th day after modeling (the treatment groups are shown in Table 9), and the time was calculated from the 10th day after modeling to count the mortality rate. The mortality rate of each group of experimental animals was recorded and calculated daily. If none of the animals in a group died, the survival rate of the group is 100%. If all the animals in a group died, the survival rate is 0%. […] In FIG. 12, “##” represents that P value is less than 0.01 when the survival rate of the administration groups were compared with that of the sham operation group; “*” represents that P value is less than 0.05 and “**” represents that P value is less than 0.01 when the survival rate of the administration groups were compared with bleomycin group.

Row | Compound | hydroxyproline content (μg/mg protein) [1] [μg/mg protein] | α-helicity (%) [2] [%] | α-helix ratio compared with polypeptide MR2 (in words) [2] | Survival rate (%) 7 days [3] [%] | Survival rate (%) 14 days [3] [%] | Survival rate (%) 21 days [3] [%] | Survival rate (%) 28 days [3] [%]
1 | CSCC[C@H](NC(=O)[C@H](CC(C)C)NC(=O)[C@@H](N)Cc1c[nH]cn1)C(=O)N[C@@H](C)C(=O)N[C@@H](CS)C(=O)N[C@@H](Cc1ccccc1)C(=O)N[C@H](C(=O)N[C@@H](CS)C(=O)N[C@@H](C)C(=O)N[C@@]1(C)CCCC=CCCC[C@@](C)(C(=O)N[C@@H](CCCNC(=N)N)C(=O)O)NC(=O)[C@H](CCCCN)NC(=O)[C@H](CC(C)C)NC(=O)[C@H](CCCCN)NC1=O)[C@@H](C)O [S10, His-Leu-Met-Ala-Cys-Phe-Thr-Cys-Ala-S5-Lys-Leu-Lys-S5-Arg] (H-HLMACFTCA[S5]KLK[S5]R-OH; staple 10-14; N-terminus and C-terminus assumed) | 0.8163 | 31.5 | significantly higher than that of polypeptide MR2 | 100 | 93.33 | 80 | 80
2 | CSCC[C@H](NC(=O)[C@H](CC(C)C)NC(=O)[C@@H](N)Cc1c[nH]cn1)C(=O)N[C@@H](C)C(=O)N[C@@H](CS)C(=O)N[C@@H](Cc1ccccc1)C(=O)N[C@H](C(=O)N[C@@H](CS)C(=O)N[C@@H](C)C(=O)N[C@@H](CCCCN)C(=O)N[C@@]1(C)CCCC=CCCC[C@@](C)(C(=O)O)NC(=O)[C@H](CCCCN)NC(=O)[C@H](CCCCN)NC(=O)[C@H](CC(C)C)NC1=O)[C@@H](C)O [S11, His-Leu-Met-Ala-Cys-Phe-Thr-Cys-Ala-Lys-S5-Leu-Lys-Lys-S5] (H-HLMACFTCAK[S5]LKK[S5]-OH; staple 11-15; N-terminus and C-terminus assumed) | 0.7725 | 37.8 | significantly higher than that of polypeptide MR2 | 100 | 93.33 | 86.67 | 86.67
